Test results taken from the supplement of paper PMC10307832.

How the values were obtained:
Assay in all cases: relative viability (nuclei count vs DMSO), 5 days (fraction); higher = more cells survive
ABC-1 = tested on: ABC-1
Outline: (§1)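 Each reported value is a median over duplicate plates. It expresses relative viability: treated-well nuclei count divided by vehicle-well nuclei count. Lung cancer cell lines in 1536-well plates were dosed by pin tool a day after seeding, alone with one drug or with a fixed anchor-drug dose plus five library-drug doses (not always all listed) in √10 steps, and nuclei were counted after 5 days.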

CAL-12T = tested on: CAL-12T
Outline: as §1

COR-L 105 = tested on: COR-L 105
Outline: as §1

ChaGo-K-1 = tested on: ChaGo-K-1
Outline: as §1

EMC-BAC-2 = tested on: EMC-BAC-2
Outline: as §1

EPLC-272H = tested on: EPLC-272H
Outline: as §1

HCC-15 = tested on: HCC-15
Outline: as §1

HCC-78 = tested on: HCC-78
Outline: as §1

HOP-62 = tested on: HOP-62
Outline: as §1

LXF-289 = tested on: LXF-289
Outline: as §1

NCI-H1666 = tested on: NCI-H1666
Outline: as §1

NCI-H1755 = tested on: NCI-H1755
Outline: as §1

NCI-H1915 = tested on: NCI-H1915
Outline: as §1

NCI-H1975 = tested on: NCI-H1975
Outline: as §1

NCI-H1993 = tested on: NCI-H1993
Outline: as §1

NCI-H2023 = tested on: NCI-H2023
Outline: as §1

NCI-H2085 = tested on: NCI-H2085
Outline: as §1

NCI-H2126 = tested on: NCI-H2126
Outline: as §1

NCI-H3122 = tested on: NCI-H3122
Outline: as §1

NCI-H322M = tested on: NCI-H322M
Outline: as §1

NCI-H358 = tested on: NCI-H358
Outline: as §1

NCI-H441 = tested on: NCI-H441
Outline: as §1

UMC-11 = tested on: UMC-11
Outline: as §1

O=C(O)c1ccc(-c2c[nH]c3ncc(-c4ccccc4)cc23)cc1C1CCCC1 + C[C@@H](Oc1cc(-c2cnn(C3CCNCC3)c2)cnc1N)c1c(Cl)ccc(F)c1Cl [Crizotinib] (partner 1 µM)
relative viability (ABC-1; first compound 0.04 µM): 1.4 | relative viability (ABC-1; first compound 0.1265 µM): 1.06 | relative viability (ABC-1; first compound 0.4 µM): 1.18 | relative viability (ABC-1; first compound 1.265 µM): 0.98 | relative viability (CAL-12T; first compound 0.04 µM): 0.633 | relative viability (CAL-12T; first compound 0.1265 µM): 0.755 | relative viability (CAL-12T; first compound 0.4 µM): 0.701 | relative viability (CAL-12T; first compound 1.265 µM): 0.528 | relative viability (COR-L 105; first compound 0.04 µM): 0.857 | relative viability (COR-L 105; first compound 0.1265 µM): 0.789 | relative viability (COR-L 105; first compound 0.4 µM): 0.723 | relative viability (COR-L 105; first compound 1.265 µM): 0.792 | relative viability (ChaGo-K-1; first compound 0.04 µM): 1.11 | relative viability (ChaGo-K-1; first compound 0.1265 µM): 1.1 | relative viability (ChaGo-K-1; first compound 0.4 µM): 1.04 | relative viability (ChaGo-K-1; first compound 1.265 µM): 0.846 | relative viability (EMC-BAC-2; first compound 0.04 µM): 0.76 | relative viability (EMC-BAC-2; first compound 0.1265 µM): 0.806 | relative viability (EMC-BAC-2; first compound 0.4 µM): 0.671 | relative viability (EMC-BAC-2; first compound 1.265 µM): 0.672 | relative viability (EPLC-272H; first compound 0.04 µM): 0.974 | relative viability (EPLC-272H; first compound 0.1265 µM): 1.01 | relative viability (EPLC-272H; first compound 0.4 µM): 0.989 | relative viability (EPLC-272H; first compound 1.265 µM): 0.655 | relative viability (HCC-15; first compound 0.04 µM): 0.845 | relative viability (HCC-15; first compound 0.1265 µM): 0.79 | relative viability (HCC-15; first compound 0.4 µM): 0.633 | relative viability (HCC-15; first compound 1.265 µM): 0.339 | relative viability (HCC-78; first compound 0.04 µM): 0.338 | relative viability (HCC-78; first compound 0.1265 µM): 0.381 | relative viability (HCC-78; first compound 0.4 µM): 0.328 | relative viability (HCC-78; first compound 1.265 µM): 0.293 | relative viability (HOP-62; first compound 0.04 µM): 0.902 | relative viability (HOP-62; first compound 0.1265 µM): 0.901 | relative viability (HOP-62; first compound 0.4 µM): 0.904 | relative viability (HOP-62; first compound 1.265 µM): 0.497 | relative viability (LXF-289; first compound 0.04 µM): 0.741 | relative viability (LXF-289; first compound 0.1265 µM): 0.772 | relative viability (LXF-289; first compound 0.4 µM): 0.594 | relative viability (LXF-289; first compound 1.265 µM): 0.285 | relative viability (NCI-H1666; first compound 0.04 µM): 1.03 | relative viability (NCI-H1666; first compound 0.1265 µM): 0.991 | relative viability (NCI-H1666; first compound 0.4 µM): 0.812 | relative viability (NCI-H1666; first compound 1.265 µM): 0.365 | relative viability (NCI-H1755; first compound 0.04 µM): 0.883 | relative viability (NCI-H1755; first compound 0.1265 µM): 0.924 | relative viability (NCI-H1755; first compound 0.4 µM): 0.897 | relative viability (NCI-H1755; first compound 1.265 µM): 0.839 | relative viability (NCI-H1915; first compound 0.04 µM): 0.96 | relative viability (NCI-H1915; first compound 0.1265 µM): 0.898 | relative viability (NCI-H1915; first compound 0.4 µM): 0.67 | relative viability (NCI-H1915; first compound 1.265 µM): 0.636 | relative viability (NCI-H1975; first compound 0.04 µM): 0.999 | relative viability (NCI-H1975; first compound 0.1265 µM): 1.04 | relative viability (NCI-H1975; first compound 0.4 µM): 0.923 | relative viability (NCI-H1975; first compound 1.265 µM): 0.767 | relative viability (NCI-H1993; first compound 0.04 µM): 0.805 | relative viability (NCI-H1993; first compound 0.4 µM): 0.805 | relative viability (NCI-H1993; first compound 1.265 µM): 0.812 | relative viability (NCI-H2023; first compound 0.04 µM): 0.639 | relative viability (NCI-H2023; first compound 0.1265 µM): 0.669 | relative viability (NCI-H2023; first compound 0.4 µM): 0.572 | relative viability (NCI-H2023; first compound 1.265 µM): 0.603 | relative viability (NCI-H2085; first compound 0.04 µM): 0.832 | relative viability (NCI-H2085; first compound 0.1265 µM): 0.804 | relative viability (NCI-H2085; first compound 0.4 µM): 0.878 | relative viability (NCI-H2085; first compound 1.265 µM): 0.696 | relative viability (NCI-H2126; first compound 0.04 µM): 1.04 | relative viability (NCI-H2126; first compound 0.1265 µM): 1.03 | relative viability (NCI-H2126; first compound 0.4 µM): 0.995 | relative viability (NCI-H2126; first compound 1.265 µM): 0.824 | relative viability (NCI-H3122; first compound 0.04 µM): 0.261 | relative viability (NCI-H3122; first compound 0.1265 µM): 0.245 | relative viability (NCI-H3122; first compound 0.4 µM): 0.272 | relative viability (NCI-H3122; first compound 1.265 µM): 0.319 | relative viability (NCI-H322M; first compound 0.04 µM): 0.943 | relative viability (NCI-H322M; first compound 0.1265 µM): 0.918 | relative viability (NCI-H322M; first compound 0.4 µM): 1.01 | relative viability (NCI-H322M; first compound 1.265 µM): 0.839 | relative viability (NCI-H358; first compound 0.04 µM): 0.633 | relative viability (NCI-H358; first compound 0.1265 µM): 0.579 | relative viability (NCI-H358; first compound 0.4 µM): 0.512 | relative viability (NCI-H358; first compound 1.265 µM): 0.352 | relative viability (NCI-H441; first compound 0.04 µM): 0.601 | relative viability (NCI-H441; first compound 0.1265 µM): 0.907 | relative viability (NCI-H441; first compound 0.4 µM): 0.689 | relative viability (NCI-H441; first compound 1.265 µM): 0.525 | relative viability (UMC-11; first compound 0.04 µM): 0.587 | relative viability (UMC-11; first compound 0.1265 µM): 0.629 | relative viability (UMC-11; first compound 0.4 µM): 0.646 | relative viability (UMC-11; first compound 1.265 µM): 0.612
